Among the data in the NIST ThermoML archive (doi:10.1021/acs.jced.7b00020) are mass density values, retold here.

A short description of the data set: wn = mass fraction of the nth substance listed. Particulars: 100 kPa, Liquid, Pycnometric method.

Numbers after ± are expanded uncertainties.

For `O=P([O-])(O)O.[K+]` [monopotassium phosphate] + O, the mass density by setting is: (288.15 K, w1 = 0.1686) 1126.4 ± 2.6 kg/m3; (318.15 K, w1 = 0.2685) 1204.6 ± 2.8 kg/m3.

Regarding `O=P([O-])(O)O.[Na+]` [sodium dihydrogen phosphate] + O, the mass density was 1388.4 ± 3.4 kg/m3 (288.15 K, w1 = 0.436) and 1573.3 ± 3.8 kg/m3 (318.15 K, w1 = 0.5992).
